Measured values published in article PMC4579598 (2015).

Columns and labels:
[1] = tested on: myc2345 (DNA, G4) TGAGGGTGGGGAGGGTGGGGAA; assay: displacement of DAOTA-M2 followed by fluorescence lifetime (FLIM); conditions: 100 mM K+; 10 mM lithium cacodylate pH 7.3; DAOTA-M2 displaced, duplex DNA present
[2] = tested on: ss17 (DNA, single strand) CCAGTTCGTAGTAACCC; assay: fluorescence emission titration; conditions: 100 mM K+; 10 mM lithium cacodylate pH 7.3, 2 μM compound; per five-base motif; log Ka 5.7-6.1 over all DNAs
[3] = tested on: PDGF-A (DNA, G4) GGAGGCGGGGGGGGGGGGGCGGGGGCGGGGGCGGGGGAGGGGCGCGGC; assay: fluorescence emission titration; conditions: 100 mM K+ (DNA annealed in 25 mM K+); 10 mM lithium cacodylate pH 7.3, 2 μM compound; per binding motif; log Ka 5.7-6.1 over all DNAs
[4] = tested on: myc2345 (DNA, G4) TGAGGGTGGGGAGGGTGGGGAA; assay: fluorescence emission titration; conditions: 100 mM K+; 10 mM lithium cacodylate pH 7.3, 2 μM compound; per binding motif; log Ka 5.7-6.1 over all DNAs
[5] = tested on: ds17 (DNA, duplex) CCAGTTCGTAGTAACCC/GGGTTACTACGAACTGG; assay: fluorescence emission titration; conditions: 100 mM K+; 10 mM lithium cacodylate pH 7.3, 2 μM compound; per binding motif; log Ka 5.7-6.1 over all DNAs
[6] = tested on: TBA (DNA, G4) GGTTGGTGTGGTTGG; assay: fluorescence emission titration; conditions: 100 mM K+; 10 mM lithium cacodylate pH 7.3, 2 μM compound; log Ka 5.7-6.1 over all DNAs

| binding [1] | binding [2] | Ka [3] [M⁻¹] | binding [4] | binding [5] | binding [6] | Structure (SMILES) |
| --- | --- | --- | --- | --- | --- | --- |
| yes | – | – | – | – | – | NCCOc1cc(C(=O)Nc2cc(OCCN)c3ccccc3n2)nc(C(=O)Nc2cc(OCCN)c3ccccc3n2)c1 |
| – | yes | 761000 | yes | yes | yes | c1cc2oc3cccc4c3[c+]3c2c(c1)n(CCN1CCOCC1)c1cccc(c13)n4CCN1CCOCC1 |
